Measured values: publication PMC9719519, “Non-classical ferroptosis inhibition by a small molecule targeting PHB2” (Nature Communications, 2022)

Columns and labels:
Assay in all cases: biochemical
Design in all cases: Eurofins recombinant human kinase profiling, remaining kinase activity as % of control, 10 uM ATP
Details in all cases: ATP 10 uM; read-out: %Ctrl@10 μM
SRPK2(h) = SRPK2(h) (Homo sapiens, UniProt P78362)
How it was run: (§1)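 Activity measured in a commercial panel of 401 recombinant human protein kinases run as a kinase profiling service.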

ErbB4(h) = ErbB4(h) (Homo sapiens, UniProt Q15303)
How it was run: as §1

DAPK1(h) = DAPK1(h) (Homo sapiens, UniProt P53355)
How it was run: as §1

BIKe(h) = molecular target: T1, BIKe(h) (Homo sapiens, UniProt Q9NSY1)
T1 construct: gene BMP2K
How it was run: as §1

GRK2(h) = GRK2(h) (Homo sapiens, UniProt P25098)
How it was run: as §1

SAPK2a(T106M)(h) = molecular target: T2, SAPK2a(T106M)(h) (Homo sapiens, UniProt Q16539, T106M)
T2 construct: gene MAPK14
How it was run: as §1

BRK(h) = molecular target: T3, BRK(h) (Homo sapiens, UniProt Q13882)
T3 construct: gene PTK6
How it was run: as §1

EphA3(h) = EphA3(h) (Homo sapiens, UniProt P29320)
How it was run: as §1

TrkA(h) = molecular target: T4, TrkA(h) (Homo sapiens, UniProt P04629)
T4 construct: gene NTRK1
How it was run: as §1

SGK3(h) = SGK3(h) (Homo sapiens, UniProt Q96BR1)
How it was run: as §1

Ros(h) = molecular target: T5, Ros(h) (Homo sapiens, UniProt P08922)
T5 construct: gene ROS1
How it was run: as §1

LRRK2(h) = LRRK2(h) (Homo sapiens, UniProt Q5S007)
How it was run: as §1

Fer(h) = Fer(h) (Homo sapiens, UniProt P16591)
How it was run: as §1

SGK(h) = molecular target: T6, SGK(h) (Homo sapiens, UniProt O00141)
T6 construct: gene SGK1
How it was run: as §1

JNK2α2(h) = molecular target: T7, JNK2α2(h) (Homo sapiens, UniProt P45984)
T7 construct: gene MAPK9; isoform alpha2
How it was run: as §1

Fyn(h) = Fyn(h) (Homo sapiens, UniProt P06241)
How it was run: as §1

Abl (M351T)(h) = molecular target: T8, Abl (M351T)(h) (Homo sapiens, UniProt P00519, M351T)
T8 construct: gene ABL1
How it was run: as §1

DYRK3(h) = DYRK3(h) (Homo sapiens, UniProt O43781)
How it was run: as §1

DCAMKL2(h) = molecular target: T9, DCAMKL2(h) (Homo sapiens, UniProt Q8N568)
T9 construct: gene DCLK2
How it was run: as §1

EphA8(h) = EphA8(h) (Homo sapiens, UniProt P29322)
How it was run: as §1

MRCKγ(h) = molecular target: T10, MRCKγ(h) (Homo sapiens, UniProt Q6DT37)
T10 construct: gene CDC42BPG
How it was run: as §1

PKR(h) = molecular target: T11, PKR(h) (Homo sapiens, UniProt P19525)
T11 construct: gene EIF2AK2
How it was run: as §1

CDK17/cyclinY(h) = CDK17/cyclinY(h) (Homo sapiens, UniProt Q00537)
How it was run: as §1

Sequence of EphA8(h) (P29322 whole entry): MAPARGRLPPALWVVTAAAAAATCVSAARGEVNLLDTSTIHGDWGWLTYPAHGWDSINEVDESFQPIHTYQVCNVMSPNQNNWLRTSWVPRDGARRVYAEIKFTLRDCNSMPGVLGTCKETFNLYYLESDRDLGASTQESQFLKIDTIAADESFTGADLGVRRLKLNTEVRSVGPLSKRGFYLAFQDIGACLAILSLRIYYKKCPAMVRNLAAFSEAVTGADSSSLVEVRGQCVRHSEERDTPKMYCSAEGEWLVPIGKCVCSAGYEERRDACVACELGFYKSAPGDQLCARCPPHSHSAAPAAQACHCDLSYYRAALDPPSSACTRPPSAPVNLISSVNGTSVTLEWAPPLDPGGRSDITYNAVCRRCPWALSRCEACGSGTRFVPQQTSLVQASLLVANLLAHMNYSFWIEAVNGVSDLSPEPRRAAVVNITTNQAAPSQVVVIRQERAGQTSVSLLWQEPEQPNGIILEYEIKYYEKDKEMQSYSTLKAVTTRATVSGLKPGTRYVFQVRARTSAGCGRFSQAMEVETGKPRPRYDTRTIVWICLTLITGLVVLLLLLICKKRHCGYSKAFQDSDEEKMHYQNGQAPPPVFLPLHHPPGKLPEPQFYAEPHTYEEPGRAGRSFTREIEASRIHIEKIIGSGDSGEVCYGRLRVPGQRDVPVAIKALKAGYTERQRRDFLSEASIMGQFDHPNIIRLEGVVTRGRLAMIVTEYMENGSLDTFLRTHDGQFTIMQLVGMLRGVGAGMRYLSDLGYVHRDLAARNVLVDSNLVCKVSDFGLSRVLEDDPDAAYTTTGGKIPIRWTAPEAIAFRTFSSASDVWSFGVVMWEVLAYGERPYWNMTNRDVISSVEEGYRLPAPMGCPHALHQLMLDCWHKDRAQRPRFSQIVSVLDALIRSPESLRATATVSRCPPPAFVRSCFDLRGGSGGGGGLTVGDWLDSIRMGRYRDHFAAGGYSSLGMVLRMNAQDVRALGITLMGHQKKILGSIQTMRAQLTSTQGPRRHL
Sequence of GRK2(h) (P25098 whole entry): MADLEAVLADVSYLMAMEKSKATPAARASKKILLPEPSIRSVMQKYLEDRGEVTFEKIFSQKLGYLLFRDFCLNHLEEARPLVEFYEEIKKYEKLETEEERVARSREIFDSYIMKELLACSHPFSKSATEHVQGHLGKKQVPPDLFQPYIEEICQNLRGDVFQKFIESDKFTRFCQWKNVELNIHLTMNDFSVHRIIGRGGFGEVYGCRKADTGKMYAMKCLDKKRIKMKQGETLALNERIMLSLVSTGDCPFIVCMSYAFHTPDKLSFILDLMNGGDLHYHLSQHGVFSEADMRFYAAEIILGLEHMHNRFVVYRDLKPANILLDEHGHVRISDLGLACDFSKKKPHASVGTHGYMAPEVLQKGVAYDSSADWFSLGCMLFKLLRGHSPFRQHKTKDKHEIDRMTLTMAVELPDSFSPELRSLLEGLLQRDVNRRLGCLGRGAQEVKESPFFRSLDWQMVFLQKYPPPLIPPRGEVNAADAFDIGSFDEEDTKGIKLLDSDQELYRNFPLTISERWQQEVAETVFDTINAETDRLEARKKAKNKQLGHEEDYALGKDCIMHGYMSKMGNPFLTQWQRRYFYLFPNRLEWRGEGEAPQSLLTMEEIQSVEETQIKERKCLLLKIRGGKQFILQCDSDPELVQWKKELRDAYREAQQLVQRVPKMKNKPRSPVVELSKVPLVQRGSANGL
Sequence of Fer(h) (P16591 whole entry): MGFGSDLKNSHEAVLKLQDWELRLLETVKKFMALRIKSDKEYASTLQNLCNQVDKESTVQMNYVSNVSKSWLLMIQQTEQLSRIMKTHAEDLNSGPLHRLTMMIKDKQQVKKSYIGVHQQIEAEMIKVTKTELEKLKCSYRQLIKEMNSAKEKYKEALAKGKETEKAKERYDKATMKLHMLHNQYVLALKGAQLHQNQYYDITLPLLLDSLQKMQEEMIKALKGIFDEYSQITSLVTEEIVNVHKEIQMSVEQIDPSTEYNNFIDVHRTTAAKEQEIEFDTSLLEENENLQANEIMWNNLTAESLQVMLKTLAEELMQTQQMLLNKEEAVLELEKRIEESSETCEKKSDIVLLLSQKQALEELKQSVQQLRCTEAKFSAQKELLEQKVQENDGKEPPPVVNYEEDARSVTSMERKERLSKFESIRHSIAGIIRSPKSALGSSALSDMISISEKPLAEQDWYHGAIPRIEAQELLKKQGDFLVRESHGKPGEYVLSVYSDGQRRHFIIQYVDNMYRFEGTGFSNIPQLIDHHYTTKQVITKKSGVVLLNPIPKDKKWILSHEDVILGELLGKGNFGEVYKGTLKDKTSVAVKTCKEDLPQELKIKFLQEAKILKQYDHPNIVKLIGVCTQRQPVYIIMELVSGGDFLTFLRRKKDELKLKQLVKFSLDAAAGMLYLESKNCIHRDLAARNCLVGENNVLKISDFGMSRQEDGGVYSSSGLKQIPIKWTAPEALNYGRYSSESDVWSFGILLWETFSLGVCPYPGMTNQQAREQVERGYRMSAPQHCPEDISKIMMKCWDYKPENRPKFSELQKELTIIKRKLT
Sequence of CDK17/cyclinY(h) (Q00537 whole entry): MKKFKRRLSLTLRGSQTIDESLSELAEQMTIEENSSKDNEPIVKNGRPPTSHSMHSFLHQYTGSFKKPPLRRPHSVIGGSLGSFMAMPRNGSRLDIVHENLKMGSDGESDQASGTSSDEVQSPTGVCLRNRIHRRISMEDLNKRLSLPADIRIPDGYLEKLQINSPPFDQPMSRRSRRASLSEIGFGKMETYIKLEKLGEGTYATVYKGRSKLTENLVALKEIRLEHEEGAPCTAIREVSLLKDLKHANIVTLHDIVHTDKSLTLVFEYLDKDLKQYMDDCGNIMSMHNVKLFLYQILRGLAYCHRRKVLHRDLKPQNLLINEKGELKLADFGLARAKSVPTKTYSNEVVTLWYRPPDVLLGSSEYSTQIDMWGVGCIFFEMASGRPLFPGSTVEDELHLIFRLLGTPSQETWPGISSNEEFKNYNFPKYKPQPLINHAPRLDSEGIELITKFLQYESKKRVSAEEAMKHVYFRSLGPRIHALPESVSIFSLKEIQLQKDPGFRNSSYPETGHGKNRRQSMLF
Sequence of CDK17/cyclinY(h) (Q8ND76 whole entry partner): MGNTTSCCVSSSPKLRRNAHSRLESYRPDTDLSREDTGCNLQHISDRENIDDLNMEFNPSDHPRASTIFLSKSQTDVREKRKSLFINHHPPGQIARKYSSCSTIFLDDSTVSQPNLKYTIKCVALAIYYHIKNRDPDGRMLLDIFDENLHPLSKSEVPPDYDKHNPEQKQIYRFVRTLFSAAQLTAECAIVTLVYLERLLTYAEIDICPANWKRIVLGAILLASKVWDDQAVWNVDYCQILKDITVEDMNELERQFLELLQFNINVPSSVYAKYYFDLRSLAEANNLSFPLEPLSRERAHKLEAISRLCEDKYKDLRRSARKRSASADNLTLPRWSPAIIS
T9 sequence (Q8N568 whole entry): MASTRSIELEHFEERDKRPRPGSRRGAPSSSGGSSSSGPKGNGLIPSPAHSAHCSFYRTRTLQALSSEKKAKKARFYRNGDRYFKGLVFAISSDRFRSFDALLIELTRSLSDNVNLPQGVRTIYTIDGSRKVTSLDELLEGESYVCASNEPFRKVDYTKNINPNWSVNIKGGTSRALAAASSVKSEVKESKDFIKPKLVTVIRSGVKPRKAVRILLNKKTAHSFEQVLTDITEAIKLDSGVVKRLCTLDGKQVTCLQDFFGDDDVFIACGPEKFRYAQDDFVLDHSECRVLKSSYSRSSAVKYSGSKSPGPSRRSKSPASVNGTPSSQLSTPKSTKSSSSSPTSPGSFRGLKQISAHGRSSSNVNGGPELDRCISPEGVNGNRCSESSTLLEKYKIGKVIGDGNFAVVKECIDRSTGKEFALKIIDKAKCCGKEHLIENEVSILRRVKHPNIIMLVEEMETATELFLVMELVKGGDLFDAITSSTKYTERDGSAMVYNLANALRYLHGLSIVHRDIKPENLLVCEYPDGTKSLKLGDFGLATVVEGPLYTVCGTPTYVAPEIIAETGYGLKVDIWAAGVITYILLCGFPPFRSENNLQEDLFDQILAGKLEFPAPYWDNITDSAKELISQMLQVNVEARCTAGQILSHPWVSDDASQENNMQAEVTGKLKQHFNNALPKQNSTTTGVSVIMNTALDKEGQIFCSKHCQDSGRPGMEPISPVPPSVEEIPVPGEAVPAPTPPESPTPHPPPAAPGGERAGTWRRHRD
T4 sequence (P04629 whole entry): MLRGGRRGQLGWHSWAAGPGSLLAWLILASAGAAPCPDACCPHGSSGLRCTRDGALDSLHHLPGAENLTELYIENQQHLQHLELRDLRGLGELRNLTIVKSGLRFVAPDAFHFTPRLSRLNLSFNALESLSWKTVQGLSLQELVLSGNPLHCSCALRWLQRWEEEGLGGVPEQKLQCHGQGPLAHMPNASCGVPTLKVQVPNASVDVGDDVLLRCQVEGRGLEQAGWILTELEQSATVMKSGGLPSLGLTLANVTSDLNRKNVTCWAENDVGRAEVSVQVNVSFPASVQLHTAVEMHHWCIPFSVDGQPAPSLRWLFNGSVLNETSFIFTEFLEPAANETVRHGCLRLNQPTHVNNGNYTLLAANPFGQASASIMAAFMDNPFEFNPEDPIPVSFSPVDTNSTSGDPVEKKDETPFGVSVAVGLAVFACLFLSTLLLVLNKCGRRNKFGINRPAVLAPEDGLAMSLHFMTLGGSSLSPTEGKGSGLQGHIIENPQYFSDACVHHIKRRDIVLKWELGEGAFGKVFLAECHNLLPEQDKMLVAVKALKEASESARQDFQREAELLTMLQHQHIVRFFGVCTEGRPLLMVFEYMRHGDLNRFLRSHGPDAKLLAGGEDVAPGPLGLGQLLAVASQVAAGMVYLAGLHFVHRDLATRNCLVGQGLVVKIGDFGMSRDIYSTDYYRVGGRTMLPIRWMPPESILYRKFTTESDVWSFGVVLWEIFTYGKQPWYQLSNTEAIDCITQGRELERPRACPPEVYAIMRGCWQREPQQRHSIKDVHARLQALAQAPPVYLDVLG

## C1=C(c2nc(-c3cnn(C4CCNCC4)c3)cn3cc(-c4ccccc4)nc23)CCOC1 [YL-939]
SRPK2(h)
  remaining activity at 10 µM: 87%
ErbB4(h)
  remaining activity at 10 µM: 99%
DAPK1(h)
  remaining activity at 10 µM: 82%
BIKe(h)
  remaining activity at 10 µM: 115%
GRK2(h)
  remaining activity at 10 µM: 111%
SAPK2a(T106M)(h)
  remaining activity at 10 µM: 105%
BRK(h)
  remaining activity at 10 µM: 109%
EphA3(h)
  remaining activity at 10 µM: 73%
TrkA(h)
  remaining activity at 10 µM: 75%
SGK3(h)
  remaining activity at 10 µM: 83%
Ros(h)
  remaining activity at 10 µM: 97%
LRRK2(h)
  remaining activity at 10 µM: 103%
Fer(h)
  remaining activity at 10 µM: 86%
SGK(h)
  remaining activity at 10 µM: 72%
JNK2α2(h)
  remaining activity at 10 µM: 72%
Fyn(h)
  remaining activity at 10 µM: 81%
Abl (M351T)(h)
  remaining activity at 10 µM: 108%
DYRK3(h)
  remaining activity at 10 µM: 77%
DCAMKL2(h)
  remaining activity at 10 µM: 79%
EphA8(h)
  remaining activity at 10 µM: 76%
MRCKγ(h)
  remaining activity at 10 µM: 95%
PKR(h)
  remaining activity at 10 µM: 97%
CDK17/cyclinY(h)
  remaining activity at 10 µM: 93%
